Test results taken from patent US10494332B2, “Protein tyrosine phosphatases or SHP2 inhibitors and uses thereof” (Indiana University Research and Technology Corporation, priority 2015, dated 2019).
Entries after “also recorded” stand apart in the source; their conditions may differ.

How the values were obtained:
mPTPA = mPTPA (Mycobacterium tuberculosis, UniProt P9WIA1); assay: biochemical; settings: IC50 mPTPA
LMWPTP = target: T1, LMWPTP (Homo sapiens, UniProt P24666); assay: PTP inhibition assay (pNPP); type: biochemical; settings: pNPP at Km, pH 7.0, 25° C.
T1 sequence (P24666 1-158): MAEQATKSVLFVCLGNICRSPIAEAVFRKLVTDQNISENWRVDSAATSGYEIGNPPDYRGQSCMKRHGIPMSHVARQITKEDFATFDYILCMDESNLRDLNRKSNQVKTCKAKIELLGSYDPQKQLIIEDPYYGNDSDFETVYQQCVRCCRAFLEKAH

[1] = test system: H1975 non-small cell lung cancer (NSCLC) cell line; assay: MTT cell proliferation assay; type: cell-based, human; settings: 20 μM and 40 μM, 2 days
Protocol: (§1) Human non-small cell lung carcinoma cell line H1975 was cultured at 37° C. and 5% CO2 in RPMI-1640 (Corning) supplemented with 10% fetal bovine serum (HyClone). Human breast cancer cell line MDA-MB-231 was cultured in DMEM supplemented with 10% fetal bovine serum. For cell proliferation assay, 2˜3×10^3 cells were seeded in each well of 96-well plates. After treating cells with compounds for 2 days, cells were incubated with 50 μg/ml MTT (3-(4,5-Dimethylthiazol-2-yl)-2,5-diphenyltetrazolium bromide) for ˜3-4 hours. Then, the culture medium was removed, DMSO was added to dissolve the formazan crystals. Wells containing only media were used for background correction. The optical density was measured spectrophotometrically at 540 nm. For signaling analysis, cells were serum-starved overnight followed by treatment with vehicle or compounds for 3 hours, and then either left un-stimulated or stimulated with 5 μg/ml EGF or 10 nM PMA (Sigma) for indicated time. Cells were lysed and the lysates were electrophoresed on a 10% polyacrylamide gel, and then transferred to a nitrocellulose membrane, and probed with anti-phospho-ERK1/2 and anti-ERK1/2 (Cell Signaling) antibodies followed by incubation with horseradish peroxidase-conjugated secondary antibodies. The blots were developed by the enhanced chemiluminescence technique using the SuperSignal West Pico Chemiluminescent substrate (Pierce).

[2] = test system: MDA-MB-231 breast cancer cell line; assay: MTT cell proliferation assay; type: cell-based, human; settings: 20 μM and 40 μM, 2 days
Protocol: as §1

SHP2 [3] = target: T2, SHP2 (Homo sapiens, UniProt Q06124); assay: SHP2 phosphatase inhibition assay (pNPP); type: biochemical; settings: for IC50: Example 9: SHP2 catalytic domain 20 nM, pNPP 3 mM, pH 7.0, 25° C., read-out: IC50 SHP2
T2 sequence (Q06124 224-528): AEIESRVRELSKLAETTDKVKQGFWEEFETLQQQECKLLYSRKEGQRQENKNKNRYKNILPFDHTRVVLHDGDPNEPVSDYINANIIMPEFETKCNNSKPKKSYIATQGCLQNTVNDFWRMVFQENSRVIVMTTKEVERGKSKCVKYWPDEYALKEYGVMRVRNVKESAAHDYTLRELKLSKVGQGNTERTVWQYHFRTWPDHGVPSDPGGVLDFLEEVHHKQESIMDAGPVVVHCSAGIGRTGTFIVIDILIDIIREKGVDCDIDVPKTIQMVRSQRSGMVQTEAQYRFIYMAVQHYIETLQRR

FAP1 = FAP1 (Homo sapiens, UniProt Q12923); assay: PTP inhibition assay (pNPP); type: biochemical; settings: IC50 FAP1
FAP1, sequence (Q12923 whole entry): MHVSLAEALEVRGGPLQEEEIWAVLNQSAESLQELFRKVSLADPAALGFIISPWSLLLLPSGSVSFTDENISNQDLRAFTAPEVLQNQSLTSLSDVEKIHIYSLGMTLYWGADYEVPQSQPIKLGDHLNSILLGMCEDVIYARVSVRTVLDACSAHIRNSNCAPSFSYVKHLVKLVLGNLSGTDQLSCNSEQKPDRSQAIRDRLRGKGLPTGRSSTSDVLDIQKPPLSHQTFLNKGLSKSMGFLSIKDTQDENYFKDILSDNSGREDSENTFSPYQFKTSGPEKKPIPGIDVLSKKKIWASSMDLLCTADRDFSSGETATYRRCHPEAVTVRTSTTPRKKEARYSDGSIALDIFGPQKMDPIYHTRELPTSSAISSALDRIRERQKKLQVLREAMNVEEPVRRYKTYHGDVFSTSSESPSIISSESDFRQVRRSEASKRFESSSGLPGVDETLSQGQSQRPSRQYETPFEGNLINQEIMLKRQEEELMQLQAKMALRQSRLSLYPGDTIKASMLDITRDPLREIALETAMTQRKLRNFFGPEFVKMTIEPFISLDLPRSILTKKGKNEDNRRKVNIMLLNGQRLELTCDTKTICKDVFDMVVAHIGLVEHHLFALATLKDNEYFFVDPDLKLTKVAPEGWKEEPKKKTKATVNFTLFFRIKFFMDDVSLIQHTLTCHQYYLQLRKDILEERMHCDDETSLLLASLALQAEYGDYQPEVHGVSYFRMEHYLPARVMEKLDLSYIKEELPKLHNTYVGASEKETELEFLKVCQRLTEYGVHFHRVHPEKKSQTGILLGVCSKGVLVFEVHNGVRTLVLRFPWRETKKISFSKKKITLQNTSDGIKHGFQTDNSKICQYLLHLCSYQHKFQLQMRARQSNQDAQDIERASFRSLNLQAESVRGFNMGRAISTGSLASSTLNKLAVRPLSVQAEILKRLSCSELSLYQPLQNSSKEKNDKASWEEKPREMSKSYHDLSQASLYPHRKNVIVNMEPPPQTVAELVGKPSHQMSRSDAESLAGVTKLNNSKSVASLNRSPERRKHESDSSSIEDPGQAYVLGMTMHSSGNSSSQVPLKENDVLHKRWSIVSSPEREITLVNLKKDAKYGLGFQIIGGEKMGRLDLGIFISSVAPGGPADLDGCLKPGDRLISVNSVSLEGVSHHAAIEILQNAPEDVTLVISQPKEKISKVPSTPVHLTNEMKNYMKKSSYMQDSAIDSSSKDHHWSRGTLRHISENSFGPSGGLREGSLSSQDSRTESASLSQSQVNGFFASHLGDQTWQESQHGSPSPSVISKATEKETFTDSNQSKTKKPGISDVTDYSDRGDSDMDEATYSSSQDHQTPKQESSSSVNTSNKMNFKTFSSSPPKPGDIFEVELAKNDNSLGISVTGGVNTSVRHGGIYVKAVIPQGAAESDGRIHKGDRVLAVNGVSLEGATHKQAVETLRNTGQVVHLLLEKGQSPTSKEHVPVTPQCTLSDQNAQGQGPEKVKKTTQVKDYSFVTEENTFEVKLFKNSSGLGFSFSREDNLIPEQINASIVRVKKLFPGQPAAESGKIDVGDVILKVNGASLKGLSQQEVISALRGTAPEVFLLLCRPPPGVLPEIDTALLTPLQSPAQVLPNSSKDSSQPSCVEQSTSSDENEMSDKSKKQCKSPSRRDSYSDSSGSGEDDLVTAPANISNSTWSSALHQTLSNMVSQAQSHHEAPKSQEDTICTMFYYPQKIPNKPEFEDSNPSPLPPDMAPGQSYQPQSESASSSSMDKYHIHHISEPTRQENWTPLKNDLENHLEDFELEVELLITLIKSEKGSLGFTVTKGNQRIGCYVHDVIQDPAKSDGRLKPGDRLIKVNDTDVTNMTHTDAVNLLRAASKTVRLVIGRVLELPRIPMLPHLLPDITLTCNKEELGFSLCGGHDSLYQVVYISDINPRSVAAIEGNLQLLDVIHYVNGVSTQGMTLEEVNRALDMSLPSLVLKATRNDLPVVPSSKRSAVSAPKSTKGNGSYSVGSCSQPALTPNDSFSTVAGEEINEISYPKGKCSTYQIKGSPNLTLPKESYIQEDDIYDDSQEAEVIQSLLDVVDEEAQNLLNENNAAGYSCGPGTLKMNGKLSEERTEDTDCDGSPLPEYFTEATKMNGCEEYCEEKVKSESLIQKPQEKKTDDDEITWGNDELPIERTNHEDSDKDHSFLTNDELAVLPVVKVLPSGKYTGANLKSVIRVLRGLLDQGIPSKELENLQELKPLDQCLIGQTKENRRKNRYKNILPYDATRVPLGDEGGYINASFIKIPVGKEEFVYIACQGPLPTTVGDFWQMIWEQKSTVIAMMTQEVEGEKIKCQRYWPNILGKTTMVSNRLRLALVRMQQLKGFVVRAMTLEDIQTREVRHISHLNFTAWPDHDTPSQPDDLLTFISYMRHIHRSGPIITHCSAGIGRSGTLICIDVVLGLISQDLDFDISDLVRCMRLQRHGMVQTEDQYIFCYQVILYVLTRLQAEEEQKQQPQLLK

Ssu72 = target: T3, Ssu72 (Homo sapiens, UniProt Q9NP77); assay: PTP inhibition assay (pNPP); type: biochemical; settings: IC50 Ssu72
T3 sequence (Q9NP77 1-194): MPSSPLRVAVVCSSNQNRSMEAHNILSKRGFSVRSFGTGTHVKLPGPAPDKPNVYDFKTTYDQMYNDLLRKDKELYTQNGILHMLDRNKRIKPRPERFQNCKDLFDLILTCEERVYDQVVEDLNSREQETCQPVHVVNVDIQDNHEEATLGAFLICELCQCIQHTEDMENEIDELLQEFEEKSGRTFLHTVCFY

TbPTP1 = TbPTP1 (Trypanosoma brucei brucei, UniProt Q38AT7); assay: PTP inhibition assay (pNPP); type: biochemical; settings: pNPP at Km, pH 7.0, 25° C.; read-out: IC50 TbPTP1
TbPTP1, sequence (Q38AT7 entry or part of it): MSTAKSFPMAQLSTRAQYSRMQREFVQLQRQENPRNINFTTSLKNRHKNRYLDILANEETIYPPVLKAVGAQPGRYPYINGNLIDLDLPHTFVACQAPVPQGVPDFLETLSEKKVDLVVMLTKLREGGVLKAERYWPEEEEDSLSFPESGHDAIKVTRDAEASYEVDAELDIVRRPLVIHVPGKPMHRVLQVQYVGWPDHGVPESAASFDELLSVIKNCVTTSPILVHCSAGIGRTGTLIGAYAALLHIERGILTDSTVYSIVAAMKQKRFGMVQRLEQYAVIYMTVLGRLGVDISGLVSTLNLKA

PEST = target: T4, PEST (Homo sapiens, UniProt Q05209); assay: PTP inhibition assay (pNPP); type: biochemical; settings: IC50 PEST
T4 sequence (Q05209 1-780): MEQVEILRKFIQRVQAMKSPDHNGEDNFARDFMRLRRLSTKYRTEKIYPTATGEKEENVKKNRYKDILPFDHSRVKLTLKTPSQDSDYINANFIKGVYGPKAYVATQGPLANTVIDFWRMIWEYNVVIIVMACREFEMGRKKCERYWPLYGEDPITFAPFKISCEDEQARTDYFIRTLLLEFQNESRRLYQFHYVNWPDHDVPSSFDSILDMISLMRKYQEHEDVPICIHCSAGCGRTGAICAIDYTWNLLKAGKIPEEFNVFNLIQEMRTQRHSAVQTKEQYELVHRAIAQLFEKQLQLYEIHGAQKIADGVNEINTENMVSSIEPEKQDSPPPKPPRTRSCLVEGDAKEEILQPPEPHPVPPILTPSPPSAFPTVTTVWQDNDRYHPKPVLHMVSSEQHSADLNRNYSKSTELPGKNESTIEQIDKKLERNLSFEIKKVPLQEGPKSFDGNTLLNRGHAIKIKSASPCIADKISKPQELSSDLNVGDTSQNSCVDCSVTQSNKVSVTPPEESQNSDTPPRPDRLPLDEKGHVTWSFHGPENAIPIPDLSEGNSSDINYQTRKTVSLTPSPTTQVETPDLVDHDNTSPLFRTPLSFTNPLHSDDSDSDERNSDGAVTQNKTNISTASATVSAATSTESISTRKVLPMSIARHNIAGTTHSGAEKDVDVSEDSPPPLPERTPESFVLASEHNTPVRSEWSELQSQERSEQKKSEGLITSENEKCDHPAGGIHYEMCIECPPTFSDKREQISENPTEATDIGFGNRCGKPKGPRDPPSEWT

VHX = target: T5, VHX (Homo sapiens, UniProt Q9NRW4); assay: PTP inhibition assay (pNPP); type: biochemical; settings: IC50 VHX, pNPP at Km, pH 7.0, 25° C.
T5 sequence (Q9NRW4 1-184): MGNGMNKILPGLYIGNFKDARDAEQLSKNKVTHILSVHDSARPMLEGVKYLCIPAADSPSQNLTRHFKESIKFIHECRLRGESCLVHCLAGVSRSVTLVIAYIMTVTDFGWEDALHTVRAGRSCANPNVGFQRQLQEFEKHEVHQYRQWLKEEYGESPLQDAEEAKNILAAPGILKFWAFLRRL

PTPμ = PTPμ (Homo sapiens, UniProt P28827); assay: biochemical
PTPμ, sequence (P28827 21-1452): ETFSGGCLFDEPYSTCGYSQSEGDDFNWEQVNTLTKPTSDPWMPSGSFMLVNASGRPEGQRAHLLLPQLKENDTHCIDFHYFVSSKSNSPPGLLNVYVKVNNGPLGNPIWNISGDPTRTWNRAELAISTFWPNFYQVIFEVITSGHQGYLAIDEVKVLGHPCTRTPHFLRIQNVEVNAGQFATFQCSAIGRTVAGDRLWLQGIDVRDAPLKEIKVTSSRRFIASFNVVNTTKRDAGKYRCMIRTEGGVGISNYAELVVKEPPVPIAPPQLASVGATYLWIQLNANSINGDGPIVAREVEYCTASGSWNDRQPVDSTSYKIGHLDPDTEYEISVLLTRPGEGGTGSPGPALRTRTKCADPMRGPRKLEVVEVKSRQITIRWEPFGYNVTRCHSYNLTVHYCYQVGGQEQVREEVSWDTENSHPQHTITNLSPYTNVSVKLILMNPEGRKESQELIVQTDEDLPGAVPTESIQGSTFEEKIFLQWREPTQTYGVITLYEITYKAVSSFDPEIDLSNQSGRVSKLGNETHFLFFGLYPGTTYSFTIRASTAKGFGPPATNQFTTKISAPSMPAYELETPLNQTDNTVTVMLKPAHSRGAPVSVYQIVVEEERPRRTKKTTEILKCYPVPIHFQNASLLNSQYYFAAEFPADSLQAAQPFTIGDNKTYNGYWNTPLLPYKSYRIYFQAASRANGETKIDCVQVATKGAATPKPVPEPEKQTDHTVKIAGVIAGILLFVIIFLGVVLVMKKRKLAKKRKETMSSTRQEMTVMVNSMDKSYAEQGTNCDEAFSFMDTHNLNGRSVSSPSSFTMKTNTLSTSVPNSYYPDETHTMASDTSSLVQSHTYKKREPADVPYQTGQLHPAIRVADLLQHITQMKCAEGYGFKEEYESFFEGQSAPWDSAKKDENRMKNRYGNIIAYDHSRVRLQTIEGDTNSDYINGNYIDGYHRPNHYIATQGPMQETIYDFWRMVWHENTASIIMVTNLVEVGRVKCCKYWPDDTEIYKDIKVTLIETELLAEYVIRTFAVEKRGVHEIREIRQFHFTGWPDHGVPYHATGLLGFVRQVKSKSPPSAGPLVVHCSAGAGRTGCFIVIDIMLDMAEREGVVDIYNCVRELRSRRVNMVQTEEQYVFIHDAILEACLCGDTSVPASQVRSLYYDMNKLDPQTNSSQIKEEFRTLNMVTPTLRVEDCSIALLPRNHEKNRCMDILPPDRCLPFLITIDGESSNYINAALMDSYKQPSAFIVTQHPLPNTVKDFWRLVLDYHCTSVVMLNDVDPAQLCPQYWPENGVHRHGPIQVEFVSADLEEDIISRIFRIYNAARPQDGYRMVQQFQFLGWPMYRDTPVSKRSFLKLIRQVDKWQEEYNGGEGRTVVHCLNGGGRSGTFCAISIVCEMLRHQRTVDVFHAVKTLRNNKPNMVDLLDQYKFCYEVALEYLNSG

PP5 = target: T6, PP5 (Homo sapiens, UniProt P53041); assay: biochemical
T6 sequence (P53041 1-499): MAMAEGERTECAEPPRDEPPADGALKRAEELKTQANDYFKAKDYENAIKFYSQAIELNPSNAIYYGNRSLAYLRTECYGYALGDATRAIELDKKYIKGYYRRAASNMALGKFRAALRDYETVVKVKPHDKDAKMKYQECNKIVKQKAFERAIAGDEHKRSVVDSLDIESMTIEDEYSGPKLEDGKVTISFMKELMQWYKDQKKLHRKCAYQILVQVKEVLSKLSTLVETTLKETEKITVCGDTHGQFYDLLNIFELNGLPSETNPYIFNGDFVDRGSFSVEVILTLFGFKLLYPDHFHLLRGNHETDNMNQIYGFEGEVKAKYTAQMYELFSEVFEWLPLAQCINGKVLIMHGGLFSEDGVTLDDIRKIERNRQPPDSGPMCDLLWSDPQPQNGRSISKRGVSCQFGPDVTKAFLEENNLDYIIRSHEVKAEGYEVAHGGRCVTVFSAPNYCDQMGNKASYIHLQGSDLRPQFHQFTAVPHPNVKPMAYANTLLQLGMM

[4] = test system: EGF-mediated ERK1/2 phosphorylation in H1975 cells; assay: EGF-induced ERK1/2 phosphorylation immunoblot; type: cell-based, human; settings: compound 7 at 40 μM
Protocol: as §1

SHP2 [5] = target: SHP2 (Homo sapiens, UniProt Q06124); assay: Covalent modification of SHP2 by QTOF ESI-MS / LC-MS; settings: 100 μM compound; cefsulodin three hours, phenyl vinyl sulfone 10 minutes
Protocol: Agilent 6520 Accurate-Mass was used for the Q-TOF ESI-MS studies. Water and acetonitrile (both containing 0.1% formic acid) were used as eluent (80% water, flow 50 μL/min, run time 5 minutes). ESI positive mode was used with mass range from 300 to 1700, the gas temperature was 325° C., and vaporizer temperature was: […]. The sample was adjusted to have a concentration at 0.1 mg/mL, the injection volume of each sample was 1 μL. Mass hunter software was used for protein deconvolution data analysis to calculate the molecular weight of the protein.
Agilent Technologies 6130 quadrupole LC-MS instrument was used for the LC-MS studies. A C18 reserved phase column (phenomenex, 50×4.6 mm) was used as stationary phase, water and methanol (both containing 0.1% formic acid) were used as mobile phase (gradient: 0-100% methanol, flow 0.8 mL/min, run time 15 minutes), and UV absorbance at the fixed wavelength of 254 nm and positive and negative ESI-MS data were recorded. The sample was adjusted to have a concentration at 0.1 mg/mL, and the injection volume of each sample was 0.2 μL. The retention time and corresponding ESI-MS data were used as identity of molecules.

mPTPA, sequence (P9WIA1 whole entry): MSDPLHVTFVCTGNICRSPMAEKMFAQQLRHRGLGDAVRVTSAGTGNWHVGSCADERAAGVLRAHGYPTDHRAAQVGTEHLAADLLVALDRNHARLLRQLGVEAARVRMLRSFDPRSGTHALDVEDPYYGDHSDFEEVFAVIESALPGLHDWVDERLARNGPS

With `O=C(CS(=O)(=O)O)Nc1ccc(N2CCOCC2)cc1` the IC50 (mPTPA) was 2.2 µM and the IC50 (LMWPTP) was 63 µM.
In the case of `CC(C)c1ccc(NC(=O)C(=O)Nc2ccc(NC(=O)C(c3ccccc3)S(=O)(=O)O)cc2)cc1` (stereo not drawn) [Compound 6, 2-((4-(2-((4-isopropylphenyl)amino)-2-oxoacetamido)phenyl)amino)-2-oxo-1-phenylethanesulfonic acid], the “H1975 cell proliferation (MTT)” value [1] is reported as “reduce H1975 cell proliferation in a dose dependent manner; also recorded: significantly (**p<0.01) reduced cell proliferation”, the “MDA-MB-231 cell survival/growth (MTT)” value [2] is reported as “significantly (**p<0.01) reduced cell survival” and the IC50 (SHP2 [3]) is reported as 2.33 ± 0.04 µM.
Compound `O=C(Nc1ccc(OCc2ccccc2)c(Cl)c1)C(=O)Nc1ccccc1NC(=O)C(c1ccccc1)S(=O)(=O)O` (stereo not drawn) [Compound L319-21-M50] has an IC50 (FAP1) of 39 µM, an IC50 (Ssu72) greater than 50 µM and an IC50 (TbPTP1) greater than 50 µM. For the same compound, the IC50 (PEST) was greater than 50 µM and the IC50 (VHX) was greater than 50 µM.
In the case of `O=C(Nc1ccc(NC(=O)C(c2ccccc2)S(=O)(=O)O)cc1)C(=O)Nc1cc(-c2ccc(Br)cc2)n[nH]1` (stereo not drawn) [Compound 4, 2-((4-(2-((3-(4-bromophenyl)-1H-pyrazol-5-yl)amino)-2-oxoacetamido)phenyl)amino)-2-oxo-1-phenylethanesulfonic acid], the “H1975 cell proliferation (MTT)” value [1] is reported as “no significant effect”, the IC50 (PTPμ) is reported as greater than 10 µM and the IC50 (PP5) is reported as greater than 10 µM. The IC50 (SHP2 [3]) was 0.73 ± 0.02 µM and the “Fold selectivity for SHP2 against PTPs examined” value (SHP2 [3]; cefsulodin: with the exception of SHP1) was no less than 8 fold.
In the case of `O=C(Nc1ccccc1)C(=O)Nc1ccc(NC(=O)C(c2ccccc2)S(=O)(=O)O)cc1` (stereo not drawn) [Compound 7, 2-oxo-2-((4-(2-oxo-2-(phenylamino)acetamido)phenyl)amino)-1-phenylethanesulfonic acid], the “Effect on EGF-mediated ERK1/2 phosphorylation” value [4] is reported as “no appreciable effect; also recorded: failed to block EGF-mediated ERK1/2 phosphorylation”, the “H1975 cell proliferation (MTT)” value [1] is reported as “ineffective; also recorded: did not” and the “MDA-MB-231 cell survival/growth (MTT)” value [2] is reported as “did not”. The “Inhibition of SHP2 at 50 μM” value (SHP2 [3]; 50 μM) was “no inhibition” and the IC50 (SHP2 [3]) was greater than 50 µM.
With `O=C(Nc1ccc(NC(=O)C(c2ccccc2)S(=O)(=O)O)cc1)C(=O)Nc1ccc(-c2ccccc2)cc1` (stereo not drawn) [Compound 5, 2-((4-(2-([1,1′-biphenyl]-4-ylamino)-2-oxoacetamido)phenyl)amino)-2-oxo-1-phenylethanesulfonic acid] the “H1975 cell proliferation (MTT)” value [1] was “reduce H1975 cell proliferation in a dose dependent manner; also recorded: significantly (**p<0.01) reduced cell proliferation”, the “MDA-MB-231 cell survival/growth (MTT)” value [2] was “significantly (**p<0.01) reduced cell survival” and the IC50 (PTPμ) was greater than 10 µM. For the same compound, the IC50 (PP5) was greater than 10 µM and the IC50 (SHP2 [3]) was 1.36 ± 0.04 µM.
For `O=C(Nc1ccc(NC(=O)C(c2ccccc2)S(=O)(=O)O)cc1)C(=O)Nc1ccc(-c2cccs2)cc1` (stereo not drawn) [Compound 3, 2-oxo-2-((4-(2-oxo-2-((4-(thiophen-2-yl)phenyl)amino)acetamido)phenyl)amino)-1-phenylethanesulfonic acid], the “H1975 cell proliferation (MTT)” value [1] was “no significant effect”, the IC50 (PTPμ) was greater than 10 µM and the IC50 (PP5) was greater than 10 µM. For the same compound, the IC50 (SHP2 [3]) was 0.9 µM.
With `C=CS(=O)(=O)c1ccccc1` [phenyl vinyl sulfone] the “Covalent adduct formation with SHP2 (QTOF ESI-MS)” value (SHP2 [5]) was “formed a covalent adduct”.
